Here are results for eleven compounds from the Kinase Knowledgebase extract (Sharma et al. 2016).

Structures are written as SMILES. A value given as a limit tells only on which side of the number the result lay.

The experiment deals with ROCK2 (human) (UniProt O75116). The experiment in a line: Inhibition of ROCK2 Kinase Activity.
ROCK2 (human), sequence (O75116 whole entry, looked up): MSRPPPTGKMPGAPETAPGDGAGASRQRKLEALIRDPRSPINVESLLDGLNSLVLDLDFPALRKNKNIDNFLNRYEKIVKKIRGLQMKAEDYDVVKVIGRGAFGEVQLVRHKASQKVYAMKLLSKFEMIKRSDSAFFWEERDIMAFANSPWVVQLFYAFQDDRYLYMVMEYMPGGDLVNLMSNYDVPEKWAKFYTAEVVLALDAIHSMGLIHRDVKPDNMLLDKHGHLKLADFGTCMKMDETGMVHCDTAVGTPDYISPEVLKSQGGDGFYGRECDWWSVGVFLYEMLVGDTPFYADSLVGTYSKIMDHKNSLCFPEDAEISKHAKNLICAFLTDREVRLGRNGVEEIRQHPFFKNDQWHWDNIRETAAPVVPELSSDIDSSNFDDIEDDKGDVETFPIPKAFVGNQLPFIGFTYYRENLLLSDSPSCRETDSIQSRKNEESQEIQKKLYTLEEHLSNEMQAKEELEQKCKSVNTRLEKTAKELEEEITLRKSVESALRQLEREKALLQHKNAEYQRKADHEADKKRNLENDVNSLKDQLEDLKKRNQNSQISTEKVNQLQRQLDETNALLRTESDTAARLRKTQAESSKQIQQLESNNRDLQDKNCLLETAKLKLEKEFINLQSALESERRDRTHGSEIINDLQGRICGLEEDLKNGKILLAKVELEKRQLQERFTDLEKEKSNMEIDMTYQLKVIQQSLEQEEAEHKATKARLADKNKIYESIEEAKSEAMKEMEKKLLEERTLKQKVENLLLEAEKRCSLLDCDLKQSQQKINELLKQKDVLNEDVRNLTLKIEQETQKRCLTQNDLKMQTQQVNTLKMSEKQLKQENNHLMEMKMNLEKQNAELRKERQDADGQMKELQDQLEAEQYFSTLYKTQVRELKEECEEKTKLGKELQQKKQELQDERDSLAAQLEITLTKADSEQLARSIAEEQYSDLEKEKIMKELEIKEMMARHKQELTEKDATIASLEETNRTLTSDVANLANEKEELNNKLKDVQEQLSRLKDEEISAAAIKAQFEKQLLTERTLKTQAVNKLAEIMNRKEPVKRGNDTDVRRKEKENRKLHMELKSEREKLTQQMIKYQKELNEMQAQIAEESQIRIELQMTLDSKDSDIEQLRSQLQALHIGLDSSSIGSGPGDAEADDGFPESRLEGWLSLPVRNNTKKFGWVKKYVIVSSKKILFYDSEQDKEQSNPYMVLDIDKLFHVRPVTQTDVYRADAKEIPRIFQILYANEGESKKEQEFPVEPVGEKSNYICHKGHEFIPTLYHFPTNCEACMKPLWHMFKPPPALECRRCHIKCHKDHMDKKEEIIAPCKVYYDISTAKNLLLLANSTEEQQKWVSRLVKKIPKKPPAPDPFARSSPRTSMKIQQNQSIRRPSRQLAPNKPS
Broadly, the IC50 is the concentration at which inhibition is half-maximal. In the case of `Nc1nccc(-c2ccc3nc(C4COc5ccc(Br)cc5C4)[nH]c3c2)n1` (stereo unspecified), the IC50 is 10 nM.

`Nc1nccc(-c2ccc3nc(C4COc5ccc(C(=O)NCCN6CCOCC6)cc5C4)[nH]c3c2)n1` (stereo unspecified) displayed a concentration for half-maximal inhibition (IC50) of 1.2 nM.

Compound `CCCOc1ccc2c(c1)CC(c1nc3ccc(-c4ccnc(N)n4)cc3[nH]1)CO2` (stereo unspecified) registered a concentration for half-maximal inhibition (IC50) of 316 nM.

`Nc1nccc(-c2ccc3nc(C4COc5ccc(C(=O)NCc6ccccc6)cc5C4)[nH]c3c2)n1` (stereo unspecified) displayed an IC50 of less than 1 nM.

As for `CN(C)S(=O)(=O)c1ccc2c(c1)CC(c1nc3ccc(-c4ccnc(N)n4)cc3[nH]1)CO2` (stereo unspecified), the IC50 was determined as 40 nM.

The compound `N#Cc1ccc2c(c1)CC(c1nc3ccc(-c4ccnc(N)n4)cc3[nH]1)CO2` (stereo unspecified) came in with a half-maximal inhibitory concentration (IC50) of 43 nM.

`Nc1nccc(-c2ccc3nc(C4COc5ccc(F)cc5C4)[nH]c3c2)n1` (stereo unspecified) came in with an IC50 of 4.7 nM.

On to `CC(=O)c1ccc2c(c1)CC(c1nc3ccc(-c4ccnc(N)n4)cc3[nH]1)CO2` (stereo unspecified), for which the IC50 came to 2.7 nM.

`Nc1nccc(-c2ccc3nc(C4COc5ccc(C(=O)NC6CC6)cc5C4)[nH]c3c2)n1` (stereo unspecified): the IC50 turned out to be 1.2 nM.

The compound `NC(=O)c1ccc2c(c1)CC(c1nc3ccc(-c4ccnc(N)n4)cc3[nH]1)CO2` (stereo unspecified) came in with a concentration for half-maximal inhibition (IC50) of 4 nM.

`Nc1nccc(-c2ccc3nc(C4COc5ccc(CC(=O)NC6CC6)cc5C4)[nH]c3c2)n1` (stereo unspecified) yielded an IC50 of 0.8 nM.
